Reference: publication PMC4488959, “Structural Features of a Bacteroidetes-Affiliated Cellulase Linked with a Polysaccharide Utilization Locus” (Scientific Reports, 2015)

Target: T1, AC2aCel5A (Bacteroidetes bacterium AC2a, UniProt A0A076MPD7, E189A)
T1 construct: signal peptide (residues 1-18) removed; mature 397 residues + C-terminal eight-residue His6-tag (405 residues), tag kept; synthetic gene, pNIC-CH, Escherichia coli
Assay: X-ray crystal structure (co-crystallization with […] cellotetraose)
Type: binding
Settings: 2.4 Å; subsites -3 to -1, molecule A only; crystals from 0.2 M potassium nitrate, 20% w/v PEG 3350; catalytically inactive mutant; authors consider that bound ligand is likely cellotetraose with fourt

T1 sequence (A0A076MPD7 entry or part of it E189A): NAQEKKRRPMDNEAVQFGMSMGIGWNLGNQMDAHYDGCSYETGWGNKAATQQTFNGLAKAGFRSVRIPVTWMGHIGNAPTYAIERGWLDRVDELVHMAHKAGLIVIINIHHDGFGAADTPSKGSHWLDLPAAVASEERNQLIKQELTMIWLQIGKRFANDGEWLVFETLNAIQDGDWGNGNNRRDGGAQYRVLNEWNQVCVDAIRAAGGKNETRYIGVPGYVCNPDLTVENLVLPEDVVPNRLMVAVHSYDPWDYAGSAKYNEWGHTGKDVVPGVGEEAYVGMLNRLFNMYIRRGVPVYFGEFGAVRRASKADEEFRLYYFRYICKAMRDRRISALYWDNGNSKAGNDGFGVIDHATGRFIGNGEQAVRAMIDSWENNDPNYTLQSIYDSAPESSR

## OC[C@H]1O[C@@H](O[C@H]2[C@H](O)[C@@H](O)[C@H](O[C@H]3[C@H](O)[C@@H](O)C(O)O[C@@H]3CO)O[C@@H]2CO)[C@H](O)[C@@H](O)[C@@H]1O (stereo partly shown) [cellotriose]
  X-ray crystal structure (co-crystallization with 5 mM cellotetraose): Additional electron density was observed in the active-site cleft of molecule A, and was refined
